Here are results for two molecules from PMC5046141, “Discovery of Isoquinolinoquinazolinones as a Novel Class of Potent PPARγ Antagonists with Anti-adipogenic Effects” (Scientific Reports, 2016).

The target in the test is T1, C285G mutant PPARγ2 (Mus musculus, UniProt P37238, C313G).
T1 construct: expressed in transfected cells; host or cells: 3T3-L1, pCS4 CMV vector
T1 sequence (P37238 1-505 C313G): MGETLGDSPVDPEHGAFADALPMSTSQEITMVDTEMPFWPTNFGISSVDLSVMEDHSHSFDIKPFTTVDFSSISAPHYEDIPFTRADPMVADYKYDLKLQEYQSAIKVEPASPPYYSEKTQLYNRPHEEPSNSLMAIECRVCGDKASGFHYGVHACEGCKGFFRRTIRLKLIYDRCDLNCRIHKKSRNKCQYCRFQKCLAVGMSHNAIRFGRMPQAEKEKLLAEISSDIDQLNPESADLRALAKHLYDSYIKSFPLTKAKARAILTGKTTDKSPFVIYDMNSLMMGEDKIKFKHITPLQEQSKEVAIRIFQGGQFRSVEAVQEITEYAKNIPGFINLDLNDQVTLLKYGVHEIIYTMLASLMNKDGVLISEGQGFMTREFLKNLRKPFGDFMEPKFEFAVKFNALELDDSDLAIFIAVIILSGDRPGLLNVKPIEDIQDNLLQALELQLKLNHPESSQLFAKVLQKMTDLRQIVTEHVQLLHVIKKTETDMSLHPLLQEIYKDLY
T1 sequence (P28700 1-467 partner): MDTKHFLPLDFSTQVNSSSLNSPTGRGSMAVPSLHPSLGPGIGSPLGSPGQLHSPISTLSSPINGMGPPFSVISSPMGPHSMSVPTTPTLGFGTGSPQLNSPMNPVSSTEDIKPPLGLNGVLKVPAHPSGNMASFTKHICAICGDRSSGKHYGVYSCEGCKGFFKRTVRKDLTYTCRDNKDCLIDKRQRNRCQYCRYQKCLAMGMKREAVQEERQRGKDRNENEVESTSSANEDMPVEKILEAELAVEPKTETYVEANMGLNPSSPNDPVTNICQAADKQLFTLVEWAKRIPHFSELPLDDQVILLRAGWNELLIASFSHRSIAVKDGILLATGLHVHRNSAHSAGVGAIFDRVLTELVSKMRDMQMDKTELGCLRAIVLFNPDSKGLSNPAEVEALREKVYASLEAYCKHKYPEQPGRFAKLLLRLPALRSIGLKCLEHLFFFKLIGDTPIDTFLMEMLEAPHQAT
The test is described as follows: PPRE-Luc reporter assay with C285G mutant PPARγ2 in 3T3-L1 cells. Particulars: 5 μM, 12 h. It is filed as cell-based. Here is the method:
To investigate the contribution site on the PPARγ2 to the interaction with 8o, we generated mutant forms of the PPARγ2 (Fig. 5). […] Thus, we tested Cys-to-Gly (Cys285), Arg-to-Gly (Arg288) substitution mutants of PPARγ2. […] The results indicated 8o has interaction with both Cys285 and Arg288, which are in agreement with the docking study.
Figure 5 Mutational study. Residues Cys285 and Arg288 of PPARγ are important for 8o function. The transcriptional activity was determined in 3T3-L1 cells transiently co-transfected with PPRE-driven luciferase reporter gene (PPRE-Luc) and PPARγ2 (WT) or (C285G, R288G) expression vector. After 24 h of transfection, the cells were cultured with 5 μM GW9662 and 5 μM 8o respectively for 12 h. Luciferase activity was measured after 36 h. Error bars mean ± SD of at least three experiments. ^*P < 0.05, ^**P < 0.01.
For plasmids expressing PPARγ2, full length PPARγ2 (mouse, 1518 bp: NCBI Reference Sequence: NP_035276.2) was subcloned into CMV promoter-derived mammalian expression vector (pCS4). […]
3T3-L1 cells were transfected for indicated combinations of expression plasmids along with a luciferase reporter plasmid (PPRE-Luc). […] Luciferase activities were measured using a luciferase reporter assay kit (Promega, Madison, WI, USA). […]

As for `COc1cc2cc3n(c(=O)c2cc1OC)CNc1cc(Cl)ccc1-3` [Compound 8o, 3-Chloro-10,11-dimethoxy-5H-isoquinolino[2,3-c]quinazolin-8(6H)-one], the “effect of Cys285 to Gly substitution on the compound's inhibition of PPARγ2 activity” value is “abolished the inhibitory effect”.

With `O=C(Nc1ccccc1)c1cc([N+](=O)[O-])ccc1Cl` [GW9662, reference compound], the “effect of Cys285 to Gly substitution on the compound's inhibition of PPARγ2 activity” value is “abolished the inhibitory effect”.
